From the supplement of paper PMC11061612

How the values were obtained:
Test in all cases: Bliss excess, mean over the matrix (fraction); higher = more synergy
[1] = system: OE33 (Esophageal Adenocarcinoma)
How it was run: (§1)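 After 24 hours at 37°C and 5% CO2 in 1536-well plates, cells in DMEM/F12 or RPMI plus 10% FBS received two-drug dose matrices for 72 hours. Viability came from CellTiter-Glo 2.0 luminescence and was scaled as inhibition, anchored at 0 by vehicle wells and at 1 by blank wells. Combination Emax is taken as the second-highest inhibition in the matrix, and Bliss excess as the observed combination effect less EA + EB − EA·EB, with EA and EB the single-agent effects.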

[2] = system: SK-LU-1 (Lung Adenocarcinoma)
How it was run: as §1

[3] = system: Ca-Ski (Cervical Carcinoma)
How it was run: as §1

[4] = system: DU-145 (Prostate Carcinoma)
How it was run: as §1

EW-1 (Ewing's Sarcoma) = system: EW-1 (Ewing's Sarcoma)
How it was run: as §1

COLO-679 (Melanoma) = system: COLO-679 (Melanoma)
How it was run: as §1

[5] = system: NCI-H1092 (Small Cell Lung Carcinoma)
How it was run: as §1

[6] = system: HAL-01 (B-Lymphoblastic Leukemia)
How it was run: as §1

SK-N-AS (Neuroblastoma) = system: SK-N-AS (Neuroblastoma)
How it was run: as §1

[7] = system: KOPN-8 (B-Lymphoblastic Leukemia)
How it was run: as §1

[8] = system: SNU-387 (Hepatocellular Carcinoma)
How it was run: as §1

[9] = system: KGN (Other Solid Carcinomas)
How it was run: as §1

[10] = system: SW982 (Other Solid Carcinomas)
How it was run: as §1

[11] = system: MDA-MB-453 (Breast Carcinoma)
How it was run: as §1

[12] = system: EFO-21 (Ovarian Carcinoma)
How it was run: as §1

[13] = system: ME-180 (Cervical Carcinoma)
How it was run: as §1

[14] = system: HCC1937 (Breast Carcinoma)
How it was run: as §1

[15] = system: EJM (Plasma Cell Myeloma)
How it was run: as §1

[16] = system: LC-1-sq (Squamous Cell Lung Carcinoma)
How it was run: as §1

[17] = system: MOG-G-UVW (Low Grade Glioma)
How it was run: as §1

`COc1nnc2ccc(N3CCC(c4ccc(OCCN5CCN(C)C(=O)[C@H]5C)cc4)CC3)nn12` [AZD5153] + Cc1c2c(nn1C)CSCc1cc(n(C)n1)CSc1cc(c3ccccc3c1)OCCCc1c(C(=O)O)n(C)c3c-2c(Cl)ccc13 [AZD5991] (first compound max 1 µM, 7x7, partner max 1 µM) gave a Bliss excess [1] of -0.0711, a Bliss excess [2] of -0.061 and a Bliss excess [3] of 0.0415. For the same molecule, the Bliss excess [4] was -0.021, the Bliss excess (EW-1 (Ewing's Sarcoma)) was 0.0165 and the Bliss excess (COLO-679 (Melanoma)) was -0.0101. It also gave a Bliss excess [5] of 0.003, a Bliss excess [6] of -0.0787 and a Bliss excess (SK-N-AS (Neuroblastoma)) of -0.0164. It also gave a Bliss excess [7] of 0.0112, a Bliss excess [8] of -0.0082 and a Bliss excess [9] of -0.0364. For the same molecule, the Bliss excess [10] was -0.0488, the Bliss excess [11] was 0.0437 and the Bliss excess [12] was -0.0428. For the same molecule, the Bliss excess [13] was -0.0435, the Bliss excess [14] was -0.0426 and the Bliss excess [15] was 0.0564. For the same molecule, the Bliss excess [16] was 0.0198 and the Bliss excess [17] was -0.0387.

For `Cc1c2c(nn1C)CSCc1cc(n(C)n1)CSc1cc(c3ccccc3c1)OCCCc1c(C(=O)O)n(C)c3c-2c(Cl)ccc13` [AZD5991] + Cc1cc2ncnn2cc1Nc1ncc2c(n1)n(C1CCOCC1)c(=O)n2C [AZD7648] (first compound max 1 µM, 7x7, partner max 10 µM), the Bliss excess [1] was -0.0304, the Bliss excess [2] was -0.062 and the Bliss excess [3] was -0.0079. It also gave a Bliss excess [4] of -0.0307, a Bliss excess (EW-1 (Ewing's Sarcoma)) of -0.0108 and a Bliss excess (COLO-679 (Melanoma)) of 0.0019. For the same molecule, the Bliss excess [5] was -0.0458, the Bliss excess [6] was 0.0227 and the Bliss excess (SK-N-AS (Neuroblastoma)) was -0.0554. It also gave a Bliss excess [7] of -0.0816, a Bliss excess [8] of -0.0318 and a Bliss excess [9] of -0.0404. The Bliss excess [10] was -0.0232, the Bliss excess [11] was -0.0328 and the Bliss excess [12] was -0.116. The Bliss excess [13] was -0.009, the Bliss excess [14] was -0.015 and the Bliss excess [15] was 0.0164. For the same molecule, the Bliss excess [16] was 0.0048 and the Bliss excess [17] was 0.0048.

`Cc1c2c(nn1C)CSCc1cc(n(C)n1)CSc1cc(c3ccccc3c1)OCCCc1c(C(=O)O)n(C)c3c-2c(Cl)ccc13` [AZD5991] + C=CCn1c(=O)c2cnc(Nc3ccc(N4CCN(C)CC4)cc3)nc2n1-c1cccc(C(C)(C)O)n1 [AZD1775] (first compound max 1 µM, partner max 1 µM) gave a Bliss excess [1] of -0.023, a Bliss excess [2] of -0.0082 and a Bliss excess [3] of -0.0012. For the same molecule, the Bliss excess [4] was 0.0621, the Bliss excess (EW-1 (Ewing's Sarcoma)) was 0.01 and the Bliss excess (COLO-679 (Melanoma)) was 0.0628. It also gave a Bliss excess [5] of -0.048, a Bliss excess [6] of -0.0197 and a Bliss excess (SK-N-AS (Neuroblastoma)) of -0.066. It also gave a Bliss excess [7] of -0.0397, a Bliss excess [8] of -0.0632 and a Bliss excess [9] of -0.002. It also gave a Bliss excess [10] of -0.0549, a Bliss excess [11] of -0.0091 and a Bliss excess [12] of 0.0177. The Bliss excess [13] was -0.0379, the Bliss excess [14] was -0.0157 and the Bliss excess [15] was 0.0357. For the same molecule, the Bliss excess [16] was -0.0139 and the Bliss excess [17] was -0.0756.

For `Cc1c2c(nn1C)CSCc1cc(n(C)n1)CSc1cc(c3ccccc3c1)OCCCc1c(C(=O)O)n(C)c3c-2c(Cl)ccc13` [AZD5991] + C[C@@H]1COCCN1C2=NC(=NC(=C2)C3(CC3)[S@](=N)(=O)C)C4=C5C=CNC5=NC=C4 [AZD6738] (first compound max 1 µM, 7x7, partner max 10 µM), the Bliss excess [1] was -0.0688, the Bliss excess [2] was -0.0032 and the Bliss excess [3] was 0.0267. The Bliss excess [4] was 0.0122, the Bliss excess (EW-1 (Ewing's Sarcoma)) was 0.0344 and the Bliss excess (COLO-679 (Melanoma)) was 0.0047. For the same molecule, the Bliss excess [5] was 0.0651, the Bliss excess [6] was -0.0042 and the Bliss excess (SK-N-AS (Neuroblastoma)) was -0.0034. For the same molecule, the Bliss excess [7] was -0.0067, the Bliss excess [8] was 0.0408 and the Bliss excess [9] was 0.0182. It also gave a Bliss excess [10] of -0.0086, a Bliss excess [11] of 0.0525 and a Bliss excess [12] of 0.016. It also gave a Bliss excess [13] of 0.0329, a Bliss excess [14] of 0.061 and a Bliss excess [15] of 0.0277. The Bliss excess [16] was 0.047 and the Bliss excess [17] was 0.0058.

`CCN(CCO)CCCOc1ccc2c(Nc3cc(CC(=O)Nc4cccc(F)c4)[nH]n3)ncnc2c1` [AZD2811] + C[C@@H]1COCCN1C2=NC(=NC(=C2)C3(CC3)[S@](=N)(=O)C)C4=C5C=CNC5=NC=C4 [AZD6738] (first compound max 1 µM, 7x7, partner max 10 µM) showed a Bliss excess [1] of -0.0167, a Bliss excess [2] of -0.0586 and a Bliss excess [3] of -0.0273. For the same molecule, the Bliss excess [4] was -0.0535, the Bliss excess (EW-1 (Ewing's Sarcoma)) was 0.0268 and the Bliss excess (COLO-679 (Melanoma)) was -0.103. For the same molecule, the Bliss excess [5] was -0.0308, the Bliss excess [6] was 0.0306 and the Bliss excess (SK-N-AS (Neuroblastoma)) was -0.0365. For the same molecule, the Bliss excess [7] was 0.032, the Bliss excess [8] was -0.0864 and the Bliss excess [9] was -0.0854. It also gave a Bliss excess [10] of -0.0585, a Bliss excess [11] of -0.0352 and a Bliss excess [12] of -0.0656. For the same molecule, the Bliss excess [13] was -0.0385, the Bliss excess [14] was -0.0972 and the Bliss excess [15] was -0.0286. It also gave a Bliss excess [16] of -0.0239 and a Bliss excess [17] of -0.0581.

`CCN(CCO)CCCOc1ccc2c(Nc3cc(CC(=O)Nc4cccc(F)c4)[nH]n3)ncnc2c1` [AZD2811] + O=C(c1cc(Cc2n[nH]c(=O)c3ccccc23)ccc1F)N1CCN(C(=O)C2CC2)CC1 [Olaparib] (first compound max 1 µM, 7x7, partner max 10 µM) showed a Bliss excess [1] of -0.0094, a Bliss excess [2] of -0.0373 and a Bliss excess [3] of 0.0242. The Bliss excess [4] was -0.0105, the Bliss excess (EW-1 (Ewing's Sarcoma)) was 0.0008 and the Bliss excess (COLO-679 (Melanoma)) was -0.0569. It also gave a Bliss excess [5] of -0.0196, a Bliss excess [6] of -0.043 and a Bliss excess (SK-N-AS (Neuroblastoma)) of 0.0255. The Bliss excess [7] was 0.0034, the Bliss excess [8] was -0.0755 and the Bliss excess [9] was -0.0152. For the same molecule, the Bliss excess [10] was -0.0365, the Bliss excess [11] was -0.0253 and the Bliss excess [12] was -0.0409. The Bliss excess [13] was -0.0208, the Bliss excess [14] was -0.0059 and the Bliss excess [15] was 0.0335. For the same molecule, the Bliss excess [16] was 0.0434 and the Bliss excess [17] was -0.0088.

In the case of `CN(C)CCCOc1ccc(-c2ccc3ncc4c(c3c2)n(C2CCOCC2)c(=O)n4C)cn1` [AZD0156] + C=CCn1c(=O)c2cnc(Nc3ccc(N4CCN(C)CC4)cc3)nc2n1-c1cccc(C(C)(C)O)n1 [AZD1775] (first compound max 1 µM, partner max 1 µM), the Bliss excess [1] is reported as 0.0402, the Bliss excess [2] is reported as -0.0264 and the Bliss excess [3] is reported as -0.0291. For the same molecule, the Bliss excess [4] was -0.0236, the Bliss excess (EW-1 (Ewing's Sarcoma)) was -0.0281 and the Bliss excess (COLO-679 (Melanoma)) was -0.0433. For the same molecule, the Bliss excess [5] was -0.0351, the Bliss excess [6] was 0.053 and the Bliss excess (SK-N-AS (Neuroblastoma)) was -0.0492. For the same molecule, the Bliss excess [7] was -0.0256, the Bliss excess [8] was -0.054 and the Bliss excess [9] was -0.0028. The Bliss excess [10] was -0.0676, the Bliss excess [11] was -0.0736 and the Bliss excess [12] was -0.0369. It also gave a Bliss excess [13] of -0.0787, a Bliss excess [14] of -0.0734 and a Bliss excess [15] of -0.0266. For the same molecule, the Bliss excess [16] was -0.0248 and the Bliss excess [17] was -0.0525.
